What all share (assay type): in vivo
One experiment deals with Echinochloa crusgalli. The experiment in a line: Post-emergence test experiment, Echinochloa crusgalli. The note with it: 1000 g a.i./ha, 3 weeks in greenhouse, fresh weight inhibition. In a few lines: (§1)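 Seeds sown under 0.5-2 cm soil; sprayed post-emergence at 2-3 leaves with acetone/tween-80 solution plus 1.5 L/ha methyl oleate EC; greenhouse 3 wk; % fresh weight inhibition.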

For another experiment, the system named is Digitaria sanguinalis. The experiment in a line: Post-emergence test experiment, Digitaria sanguinalis. The note with it: 1000 g a.i./ha, 3 weeks in greenhouse, fresh weight inhibition. Put shortly: as §1
For experiment [1], the system named is Monocotyledonous and dicotyledonous weed seeds and main crop seeds. The experiment in a line: Post-emergence test experiment, other weeds and crops (Table 4, 1000 g a.i./ha). To be noted: 3 weeks in greenhouse, fresh weight inhibition. Put shortly: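 Growth inhibition is scored on fresh weight. Spray solutions were made in acetone with tween-80, diluted in water, plus 1.5 L/ha methyl oleate emulsible concentrate. Plants from greenhouse-grown weed and crop seeds were treated post-emergence at 2-3 leaves, 2 weeks after sowing.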

Take `CC(Oc1nc(F)c(Cl)c(N)c1Cl)C(=O)OCC(Cl)=C(Cl)Cl` (stereo not drawn) [Compound 2-286]: in the experiment on Echinochloa crusgalli, the “Activity level (growth inhibition rate), Echinochloa crusgalli” value is 5 (Level 5: the growth inhibition rate is greater than 85%). In addition, the “Activity level (growth inhibition rate), Digitaria sanguinalis” value with Digitaria sanguinalis is listed as 5 (Level 5: the growth inhibition rate is greater than 85%). Also, in experiment [1], the “Activity level (growth inhibition rate), Abutilon theophrasti Medic.” value is listed as 5 (Level 5: the growth inhibition rate is greater than 85%); the “Activity level (growth inhibition rate), Galium aparine” value is recorded as 5 (Level 5: the growth inhibition rate is greater than 85%); the “Activity level (growth inhibition rate), Monochoria Vaginalis” value is 5 (Level 5: the growth inhibition rate is greater than 85%).
As to `CC(C)CCOC(=O)[C@@H](C)Oc1nc(F)c(Cl)c(N)c1Cl` [Compound 2-89], in the experiment on Echinochloa crusgalli, the “Activity level (growth inhibition rate), Echinochloa crusgalli” value is on record as 5 (Level 5: the growth inhibition rate is greater than 85%). In the experiment on Digitaria sanguinalis, the “Activity level (growth inhibition rate), Digitaria sanguinalis” value is 5 (Level 5: the growth inhibition rate is greater than 85%). Also, in experiment [1], the “Activity level (growth inhibition rate), Abutilon theophrasti Medic.” value is 5 (Level 5: the growth inhibition rate is greater than 85%); the “Activity level (growth inhibition rate), Galium aparine” value is reported as 5 (Level 5: the growth inhibition rate is greater than 85%); the “Activity level (growth inhibition rate), Monochoria Vaginalis” value is given as 5 (Level 5: the growth inhibition rate is greater than 85%).
Turning to `CC(Oc1nc(F)c(Cl)c(N)c1Cl)C(=O)O.CNC` (stereo not drawn) [Compound 2-7], the “Activity level (growth inhibition rate), Echinochloa crusgalli” value in the experiment on Echinochloa crusgalli is reported as 5 (Level 5: the growth inhibition rate is greater than 85%). Further, the “Activity level (growth inhibition rate), Digitaria sanguinalis” value in the experiment with Digitaria sanguinalis was 5 (Level 5: the growth inhibition rate is greater than 85%). In experiment [1], the “Activity level (growth inhibition rate), Abutilon theophrasti Medic.” value was 5 (Level 5: the growth inhibition rate is greater than 85%); the “Activity level (growth inhibition rate), Galium aparine” value was 5 (Level 5: the growth inhibition rate is greater than 85%); the “Activity level (growth inhibition rate), Monochoria Vaginalis” value is 5 (Level 5: the growth inhibition rate is greater than 85%).
In the case of `CC(Oc1nc(F)c(Cl)c(N)c1Cl)C(=O)OCc1ccccc1Cl` (stereo not drawn) [Compound 2-314], the “Activity level (growth inhibition rate), Echinochloa crusgalli” value in the experiment on Echinochloa crusgalli is reported as 5 (Level 5: the growth inhibition rate is greater than 85%). The “Activity level (growth inhibition rate), Digitaria sanguinalis” value in the experiment with Digitaria sanguinalis is on record as 5 (Level 5: the growth inhibition rate is greater than 85%). Further, in experiment [1], the “Activity level (growth inhibition rate), Abutilon theophrasti Medic.” value was 5 (Level 5: the growth inhibition rate is greater than 85%); the “Activity level (growth inhibition rate), Galium aparine” value is reported as 5 (Level 5: the growth inhibition rate is greater than 85%); the “Activity level (growth inhibition rate), Monochoria Vaginalis” value is reported as 5 (Level 5: the growth inhibition rate is greater than 85%).
Turning to `Cc1cccc(CSC(=O)C(C)Oc2nc(F)c(Cl)c(N)c2Cl)c1` (stereo not drawn) [Compound 2-305], the “Activity level (growth inhibition rate), Echinochloa crusgalli” value in the experiment with Echinochloa crusgalli was 5 (Level 5: the growth inhibition rate is greater than 85%). The “Activity level (growth inhibition rate), Digitaria sanguinalis” value in the experiment on Digitaria sanguinalis is given as 5 (Level 5: the growth inhibition rate is greater than 85%). Also, in experiment [1], the “Activity level (growth inhibition rate), Abutilon theophrasti Medic.” value is 5 (Level 5: the growth inhibition rate is greater than 85%); the “Activity level (growth inhibition rate), Galium aparine” value is 5 (Level 5: the growth inhibition rate is greater than 85%); the “Activity level (growth inhibition rate), Monochoria Vaginalis” value was 5 (Level 5: the growth inhibition rate is greater than 85%).
Regarding `CC(Oc1nc(F)c(Cl)c(N)c1Cl)C(=O)SCc1cccc(F)c1` (stereo not drawn) [Compound 2-311], the “Activity level (growth inhibition rate), Echinochloa crusgalli” value in the experiment with Echinochloa crusgalli is recorded as 5 (Level 5: the growth inhibition rate is greater than 85%). Further, in the experiment with Digitaria sanguinalis, the “Activity level (growth inhibition rate), Digitaria sanguinalis” value is recorded as 5 (Level 5: the growth inhibition rate is greater than 85%). In addition, in experiment [1], the “Activity level (growth inhibition rate), Abutilon theophrasti Medic.” value is recorded as 5 (Level 5: the growth inhibition rate is greater than 85%); the “Activity level (growth inhibition rate), Galium aparine” value is reported as 5 (Level 5: the growth inhibition rate is greater than 85%); the “Activity level (growth inhibition rate), Monochoria Vaginalis” value was 5 (Level 5: the growth inhibition rate is greater than 85%).
As to `CC(Oc1nc(F)c(Cl)c(N)c1Cl)C(=O)Sc1cccc(Cl)c1` (stereo not drawn) [Compound 2-357], in the experiment with Echinochloa crusgalli, the “Activity level (growth inhibition rate), Echinochloa crusgalli” value is 5 (Level 5: the growth inhibition rate is greater than 85%). Also, the “Activity level (growth inhibition rate), Digitaria sanguinalis” value with Digitaria sanguinalis is reported as 5 (Level 5: the growth inhibition rate is greater than 85%). Besides, in experiment [1], the “Activity level (growth inhibition rate), Abutilon theophrasti Medic.” value was 5 (Level 5: the growth inhibition rate is greater than 85%); the “Activity level (growth inhibition rate), Galium aparine” value is 5 (Level 5: the growth inhibition rate is greater than 85%); the “Activity level (growth inhibition rate), Monochoria Vaginalis” value is on record as 5 (Level 5: the growth inhibition rate is greater than 85%).
With `CC(Oc1nc(F)c(Cl)c(N)c1Cl)C(=O)SCc1cccc(Br)c1` (stereo not drawn) [Compound 2-323], the “Activity level (growth inhibition rate), Echinochloa crusgalli” value in the experiment with Echinochloa crusgalli is 5 (Level 5: the growth inhibition rate is greater than 85%). Further, the “Activity level (growth inhibition rate), Digitaria sanguinalis” value with Digitaria sanguinalis was 5 (Level 5: the growth inhibition rate is greater than 85%). In addition, in experiment [1], the “Activity level (growth inhibition rate), Abutilon theophrasti Medic.” value is given as 5 (Level 5: the growth inhibition rate is greater than 85%); the “Activity level (growth inhibition rate), Galium aparine” value is given as 5 (Level 5: the growth inhibition rate is greater than 85%); the “Activity level (growth inhibition rate), Monochoria Vaginalis” value is reported as 5 (Level 5: the growth inhibition rate is greater than 85%).
As for `CCOCOC(=O)[C@@H](C)Oc1nc(F)c(Cl)c(N)c1Cl` [Compound 2-370], the “Activity level (growth inhibition rate), Echinochloa crusgalli” value in the experiment with Echinochloa crusgalli was 5 (Level 5: the growth inhibition rate is greater than 85%). Moreover, in the experiment with Digitaria sanguinalis, the “Activity level (growth inhibition rate), Digitaria sanguinalis” value was 5 (Level 5: the growth inhibition rate is greater than 85%). In addition, in experiment [1], the “Activity level (growth inhibition rate), Abutilon theophrasti Medic.” value is reported as 5 (Level 5: the growth inhibition rate is greater than 85%); the “Activity level (growth inhibition rate), Galium aparine” value is 5 (Level 5: the growth inhibition rate is greater than 85%); the “Activity level (growth inhibition rate), Monochoria Vaginalis” value is on record as 5 (Level 5: the growth inhibition rate is greater than 85%).
On to `C[C@@H](Oc1nc(F)c(Cl)c(N)c1Cl)C(=O)SC(C)(C)C` [Compound 2-84], for which, in the experiment with Echinochloa crusgalli, the “Activity level (growth inhibition rate), Echinochloa crusgalli” value is recorded as 5 (Level 5: the growth inhibition rate is greater than 85%). For the same compound, in the experiment on Digitaria sanguinalis, the “Activity level (growth inhibition rate), Digitaria sanguinalis” value was 5 (Level 5: the growth inhibition rate is greater than 85%). In experiment [1], the “Activity level (growth inhibition rate), Abutilon theophrasti Medic.” value is recorded as 5 (Level 5: the growth inhibition rate is greater than 85%); the “Activity level (growth inhibition rate), Galium aparine” value is reported as 5 (Level 5: the growth inhibition rate is greater than 85%); the “Activity level (growth inhibition rate), Monochoria Vaginalis” value is listed as 5 (Level 5: the growth inhibition rate is greater than 85%).
On to `CC(Oc1nc(F)c(Cl)c(N)c1Cl)C(=O)SCc1ccccc1` (stereo not drawn) [Compound 2-301], for which the “Activity level (growth inhibition rate), Echinochloa crusgalli” value with Echinochloa crusgalli was 5 (Level 5: the growth inhibition rate is greater than 85%). Also, the “Activity level (growth inhibition rate), Digitaria sanguinalis” value in the experiment with Digitaria sanguinalis is recorded as 5 (Level 5: the growth inhibition rate is greater than 85%). In experiment [1], the “Activity level (growth inhibition rate), Abutilon theophrasti Medic.” value was 5 (Level 5: the growth inhibition rate is greater than 85%); the “Activity level (growth inhibition rate), Galium aparine” value was 5 (Level 5: the growth inhibition rate is greater than 85%); the “Activity level (growth inhibition rate), Monochoria Vaginalis” value is reported as 5 (Level 5: the growth inhibition rate is greater than 85%).
Take `CCC(C)SC(=O)[C@@H](C)Oc1nc(F)c(Cl)c(N)c1Cl` (stereo partly drawn) [Compound 2-82]: the “Activity level (growth inhibition rate), Echinochloa crusgalli” value with Echinochloa crusgalli was 5 (Level 5: the growth inhibition rate is greater than 85%). For the same compound, the “Activity level (growth inhibition rate), Digitaria sanguinalis” value in the experiment on Digitaria sanguinalis is on record as 5 (Level 5: the growth inhibition rate is greater than 85%). Further, in experiment [1], the “Activity level (growth inhibition rate), Abutilon theophrasti Medic.” value is on record as 5 (Level 5: the growth inhibition rate is greater than 85%); the “Activity level (growth inhibition rate), Galium aparine” value was 5 (Level 5: the growth inhibition rate is greater than 85%); the “Activity level (growth inhibition rate), Monochoria Vaginalis” value was 5 (Level 5: the growth inhibition rate is greater than 85%).
In the case of `CC(Oc1nc(F)c(Cl)c(N)c1Cl)C(=O)[S-].CC(Oc1nc(F)c(Cl)c(N)c1Cl)C(=O)[S-].[Ca+2]` (stereo not drawn) [Compound 2-2], in the experiment with Echinochloa crusgalli, the “Activity level (growth inhibition rate), Echinochloa crusgalli” value is given as 5 (Level 5: the growth inhibition rate is greater than 85%). Further, the “Activity level (growth inhibition rate), Digitaria sanguinalis” value with Digitaria sanguinalis is 5 (Level 5: the growth inhibition rate is greater than 85%). In experiment [1], the “Activity level (growth inhibition rate), Abutilon theophrasti Medic.” value is listed as 5 (Level 5: the growth inhibition rate is greater than 85%); the “Activity level (growth inhibition rate), Galium aparine” value is given as 5 (Level 5: the growth inhibition rate is greater than 85%); the “Activity level (growth inhibition rate), Monochoria Vaginalis” value is 5 (Level 5: the growth inhibition rate is greater than 85%).
With `COc1ccc(SC(=O)C(C)Oc2nc(F)c(Cl)c(N)c2Cl)cc1` (stereo not drawn) [Compound 2-358], the “Activity level (growth inhibition rate), Echinochloa crusgalli” value in the experiment on Echinochloa crusgalli is given as 5 (Level 5: the growth inhibition rate is greater than 85%). Moreover, the “Activity level (growth inhibition rate), Digitaria sanguinalis” value in the experiment with Digitaria sanguinalis is on record as 5 (Level 5: the growth inhibition rate is greater than 85%). Also, in experiment [1], the “Activity level (growth inhibition rate), Abutilon theophrasti Medic.” value is 5 (Level 5: the growth inhibition rate is greater than 85%); the “Activity level (growth inhibition rate), Galium aparine” value is reported as 5 (Level 5: the growth inhibition rate is greater than 85%); the “Activity level (growth inhibition rate), Monochoria Vaginalis” value was 5 (Level 5: the growth inhibition rate is greater than 85%).
Turning to `CC(Oc1nc(F)c(Cl)c(N)c1Cl)C(=O)OCc1ccc(F)cc1` (stereo not drawn) [Compound 2-312], in the experiment with Echinochloa crusgalli, the “Activity level (growth inhibition rate), Echinochloa crusgalli” value was 5 (Level 5: the growth inhibition rate is greater than 85%). For the same compound, the “Activity level (growth inhibition rate), Digitaria sanguinalis” value in the experiment with Digitaria sanguinalis is 5 (Level 5: the growth inhibition rate is greater than 85%). Further, in experiment [1], the “Activity level (growth inhibition rate), Abutilon theophrasti Medic.” value is listed as 5 (Level 5: the growth inhibition rate is greater than 85%); the “Activity level (growth inhibition rate), Galium aparine” value was 5 (Level 5: the growth inhibition rate is greater than 85%); the “Activity level (growth inhibition rate), Monochoria Vaginalis” value is 5 (Level 5: the growth inhibition rate is greater than 85%).
